Two molecules from ChEMBL document CHEMBL5303765, “Data for DCP probe BAY-7081” (2023) can be followed below.

Series [1] has as its target Adenosine receptor A3 (Homo sapiens) (UniProt P0DMS8). The series can be described thus: Adenosine A3 Eurofins Panlabs panel. The following applies: Compound concentration 10.0 uM.
Series [2] addresses Substance-P receptor (Homo sapiens) (UniProt P25103). The series can be described thus: Tachykinin NK1 Eurofins Panlabs panel. The following applies: Compound concentration 10.0 uM.
Series [3] concerns the target Adenosine Transporter (Cavia porcellus) (UniProt H0V4R7+H0UUG1+H0V3Z5). The series can be described thus: Transporter, Adenosine Eurofins Panlabs panel. The series is classed as protein assay. The note with it: Compound concentration 10.0 uM.
For series [4], the target named is T1, Dual 3',5'-cyclic-AMP and -GMP phosphodiesterase 11A (Homo sapiens, UniProt Q9HCR9). The series can be described thus: 3H-cAMP and 3H-cGMP Scintillation Proximity Assay (PDE11A).
The target in series [5] is Alpha-1A adrenergic receptor (Rattus norvegicus) (UniProt P43140). The series is described as follows: Adrenergic alpha1A Eurofins Panlabs panel. The following applies: Compound concentration 10.0 uM.
For series [6], the target named is T2, 3',5'-cyclic-AMP phosphodiesterase 4B (Homo sapiens, UniProt Q07343). The series is described as follows: 3H-cAMP and 3H-cGMP Scintillation Proximity Assay (PDE4B).
T2 sequence (Q07343 whole entry): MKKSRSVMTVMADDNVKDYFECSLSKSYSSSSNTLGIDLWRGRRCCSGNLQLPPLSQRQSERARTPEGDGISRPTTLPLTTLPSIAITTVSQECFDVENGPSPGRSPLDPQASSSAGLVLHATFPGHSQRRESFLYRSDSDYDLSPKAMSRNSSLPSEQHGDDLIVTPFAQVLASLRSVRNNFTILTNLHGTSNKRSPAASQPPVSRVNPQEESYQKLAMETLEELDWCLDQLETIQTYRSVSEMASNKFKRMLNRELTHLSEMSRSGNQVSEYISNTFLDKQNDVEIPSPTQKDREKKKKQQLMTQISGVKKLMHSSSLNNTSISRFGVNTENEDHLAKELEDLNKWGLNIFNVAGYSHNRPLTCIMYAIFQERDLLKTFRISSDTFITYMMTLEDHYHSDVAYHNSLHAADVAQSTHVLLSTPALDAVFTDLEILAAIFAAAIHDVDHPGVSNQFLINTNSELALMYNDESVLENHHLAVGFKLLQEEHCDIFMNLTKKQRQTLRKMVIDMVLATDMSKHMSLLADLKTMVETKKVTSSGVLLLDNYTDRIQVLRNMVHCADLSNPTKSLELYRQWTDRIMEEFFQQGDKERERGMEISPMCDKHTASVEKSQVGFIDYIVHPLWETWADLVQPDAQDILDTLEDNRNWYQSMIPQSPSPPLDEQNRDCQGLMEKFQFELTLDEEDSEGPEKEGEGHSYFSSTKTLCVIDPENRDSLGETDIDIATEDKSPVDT
For series [7], the target named is Growth hormone secretagogue receptor type 1 (Homo sapiens) (UniProt Q92847). The series can be described thus: Growth Hormone Secretagogue (GHS, Ghrelin) Eurofins Panlabs panel. The note with it: Compound concentration 10.0 uM.
Series [8] has as its target Mu-type opioid receptor (Homo sapiens, UniProt P35372). The series can be described thus: Opiate ??(OP3, MOP) Eurofins Panlabs panel. The note with it: Compound concentration 10.0 uM.
Series [9] concerns the target Angiotensin-converting enzyme (Oryctolagus cuniculus) (UniProt P12822). The series is described as follows: Peptidase, Angiotensin Converting Enzyme Eurofins Panlabs panel. The note with it: Compound concentration 10.0 uM.
Series [10] concerns the target Sodium-dependent dopamine transporter (Homo sapiens) (UniProt Q01959). The series is described as follows: Uptake, Dopamine - Antagonist Eurofins Panlabs panel. The note with it: Compound concentration 10.0 uM.
Series [11] has as its target T3, Muscarinic acetylcholine receptor M2 (Homo sapiens) (UniProt P08172).
T3 sequence (whole entry): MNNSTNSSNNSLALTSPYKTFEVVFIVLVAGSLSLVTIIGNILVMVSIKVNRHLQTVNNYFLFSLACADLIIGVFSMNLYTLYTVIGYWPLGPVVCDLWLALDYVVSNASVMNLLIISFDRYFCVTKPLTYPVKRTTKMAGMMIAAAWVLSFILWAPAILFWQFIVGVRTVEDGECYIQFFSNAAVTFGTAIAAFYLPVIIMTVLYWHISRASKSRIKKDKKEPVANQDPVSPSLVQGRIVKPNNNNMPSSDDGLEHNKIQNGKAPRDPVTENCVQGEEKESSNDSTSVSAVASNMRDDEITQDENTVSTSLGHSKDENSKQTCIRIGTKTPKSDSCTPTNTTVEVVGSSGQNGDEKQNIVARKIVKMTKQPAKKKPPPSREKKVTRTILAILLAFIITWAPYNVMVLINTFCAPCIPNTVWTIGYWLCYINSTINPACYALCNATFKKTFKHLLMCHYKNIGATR
The series is described as follows: Muscarinic M2 Eurofins Panlabs panel. The note with it: Compound concentration 10.0 uM.

Series [12] has as its target Muscarinic acetylcholine receptor M3 (Homo sapiens) (UniProt P20309). The series can be described thus: Muscarinic M3 Eurofins Panlabs panel. The following applies: Compound concentration 10.0 uM.
Series [13] concerns the target Prostaglandin E2 receptor EP3 subtype (Homo sapiens) (UniProt P43115). The series can be described thus: Prostanoid EP3 Eurofins Panlabs panel. The note with it: concentration not given here.
Series [14] addresses 5-hydroxytryptamine receptor 4 (Cavia porcellus) (UniProt O70528). The series is described as follows: Serotonin (5-Hydroxytryptamine) 5-HT4 Eurofins Panlabs panel. The note with it: Compound concentration 10.0 uM.
The target in series [15] is cGMP-dependent 3',5'-cyclic phosphodiesterase (Homo sapiens, UniProt O00408). The series is described as follows: 3H-cAMP and 3H-cGMP Scintillation Proximity Assay (PDE2A). On the technique in general: SPA uses beads or plates that emit light when radiolabelled molecules are held near them.
Series [16] concerns the target Carbonic anhydrase 2 (Homo sapiens) (UniProt P00918). The series is described as follows: Carbonic Anhydrase II Eurofins Panlabs panel. The note with it: Compound concentration 10.0 uM.
Series [17] addresses T4, Alpha-2A adrenergic receptor (Homo sapiens) (UniProt P08913).
T4 sequence (whole entry): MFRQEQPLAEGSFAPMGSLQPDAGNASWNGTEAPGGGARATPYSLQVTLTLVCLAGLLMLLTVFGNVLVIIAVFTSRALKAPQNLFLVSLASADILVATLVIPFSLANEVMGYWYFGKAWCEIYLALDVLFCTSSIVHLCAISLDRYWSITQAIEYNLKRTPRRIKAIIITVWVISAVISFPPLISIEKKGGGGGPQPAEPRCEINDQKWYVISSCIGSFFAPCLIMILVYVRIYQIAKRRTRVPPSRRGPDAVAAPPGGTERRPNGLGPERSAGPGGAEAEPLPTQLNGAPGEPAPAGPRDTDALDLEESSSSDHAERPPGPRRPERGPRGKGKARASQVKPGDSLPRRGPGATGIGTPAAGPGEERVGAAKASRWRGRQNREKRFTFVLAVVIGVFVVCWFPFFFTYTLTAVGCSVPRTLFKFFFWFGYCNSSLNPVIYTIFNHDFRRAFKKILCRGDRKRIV
The series is described as follows: Adrenergic alpha2A Eurofins Panlabs panel. The note with it: Compound concentration 10.0 uM.

Series [18] has as its target D(1A) dopamine receptor (Homo sapiens) (UniProt P21728). The series can be described thus: Dopamine D1 Eurofins Panlabs panel. The note with it: Compound concentration 10.0 uM.
Series [19] addresses D(3) dopamine receptor (Homo sapiens) (UniProt P35462). The series can be described thus: Dopamine D3 Eurofins Panlabs panel. The note with it: Compound concentration 10.0 uM.
Series [20] concerns the target Monoamine oxidase A (MAO-A) (Homo sapiens, UniProt P21397). The series is described as follows: Monoamine Oxidase MAO-A Eurofins Panlabs panel. The following applies: compound concentration 10 uM.
Series [21] has as its target Endothelin-1 receptor (Homo sapiens) (UniProt P25101). The series is described as follows: Endothelin ETA Eurofins Panlabs panel. The following applies: Compound concentration 10.0 uM.
In series [22] the target is Phosphodiesterase 6. The series can be described thus: 3H-cAMP and 3H-cGMP Scintillation Proximity Assay (PDE6). In kind it is tissue-based, Bos taurus, retina.
The target in series [23] is Sodium-dependent dopamine transporter (Homo sapiens) (UniProt Q01959). The series is described as follows: Transporter, Dopamine (DAT) Eurofins Panlabs panel. The note with it: Compound concentration 10.0 uM.
Chain of Sodium-dependent dopamine transporter (Homo sapiens) (Q01959 whole entry): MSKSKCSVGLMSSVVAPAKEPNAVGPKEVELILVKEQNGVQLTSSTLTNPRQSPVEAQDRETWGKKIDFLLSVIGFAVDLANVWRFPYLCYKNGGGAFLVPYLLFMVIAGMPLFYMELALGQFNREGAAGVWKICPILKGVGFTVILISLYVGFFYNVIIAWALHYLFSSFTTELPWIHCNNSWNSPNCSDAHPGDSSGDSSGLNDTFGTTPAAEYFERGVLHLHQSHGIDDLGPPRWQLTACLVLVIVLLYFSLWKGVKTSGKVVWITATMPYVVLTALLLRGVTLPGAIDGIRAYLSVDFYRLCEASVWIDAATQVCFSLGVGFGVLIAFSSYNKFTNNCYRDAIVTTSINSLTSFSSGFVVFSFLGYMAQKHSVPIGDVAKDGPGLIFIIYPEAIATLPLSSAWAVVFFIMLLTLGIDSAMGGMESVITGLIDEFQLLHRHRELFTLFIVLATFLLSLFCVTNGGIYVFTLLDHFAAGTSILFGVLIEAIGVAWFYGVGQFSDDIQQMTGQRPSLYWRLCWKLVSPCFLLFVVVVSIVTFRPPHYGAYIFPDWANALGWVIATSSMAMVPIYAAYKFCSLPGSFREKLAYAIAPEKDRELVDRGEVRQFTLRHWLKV
The target of series [24] is T5, cAMP and cAMP-inhibited cGMP 3',5'-cyclic phosphodiesterase 10A (Homo sapiens, UniProt Q9Y233). The series is described as follows: 3H-cAMP and 3H-cGMP Scintillation Proximity Assay (PDE10A).
T5 sequence (Q9Y233 whole entry): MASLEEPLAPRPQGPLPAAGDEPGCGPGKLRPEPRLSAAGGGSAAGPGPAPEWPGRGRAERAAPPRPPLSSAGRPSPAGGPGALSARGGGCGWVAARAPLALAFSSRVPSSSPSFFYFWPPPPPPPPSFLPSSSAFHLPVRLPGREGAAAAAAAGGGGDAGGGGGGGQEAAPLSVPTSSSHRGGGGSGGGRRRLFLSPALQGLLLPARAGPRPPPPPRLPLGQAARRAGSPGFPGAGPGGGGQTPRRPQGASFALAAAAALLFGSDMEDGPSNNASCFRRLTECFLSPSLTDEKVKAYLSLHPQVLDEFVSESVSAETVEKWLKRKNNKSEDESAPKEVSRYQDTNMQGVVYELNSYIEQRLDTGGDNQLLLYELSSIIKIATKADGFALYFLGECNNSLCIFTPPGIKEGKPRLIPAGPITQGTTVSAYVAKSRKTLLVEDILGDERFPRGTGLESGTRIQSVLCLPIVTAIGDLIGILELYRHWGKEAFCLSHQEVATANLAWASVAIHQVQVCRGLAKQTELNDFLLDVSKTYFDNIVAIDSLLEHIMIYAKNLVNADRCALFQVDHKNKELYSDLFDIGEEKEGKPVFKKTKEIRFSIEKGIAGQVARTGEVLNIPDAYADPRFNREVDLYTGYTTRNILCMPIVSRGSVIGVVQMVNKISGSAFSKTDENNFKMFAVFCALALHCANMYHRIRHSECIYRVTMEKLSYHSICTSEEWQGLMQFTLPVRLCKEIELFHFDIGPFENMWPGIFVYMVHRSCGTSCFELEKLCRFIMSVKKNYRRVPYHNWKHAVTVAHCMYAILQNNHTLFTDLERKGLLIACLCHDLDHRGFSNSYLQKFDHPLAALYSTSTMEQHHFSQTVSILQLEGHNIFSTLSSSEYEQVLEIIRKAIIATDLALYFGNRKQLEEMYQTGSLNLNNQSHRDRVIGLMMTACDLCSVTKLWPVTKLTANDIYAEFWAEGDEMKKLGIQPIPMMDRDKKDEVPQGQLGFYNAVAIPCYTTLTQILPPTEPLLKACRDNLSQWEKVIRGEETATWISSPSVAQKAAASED
In series [25] the target is Vasopressin V1a receptor (Homo sapiens) (UniProt P37288). The series is described as follows: Vasopressin V1A Eurofins Panlabs panel. The note with it: concentration not given here.
In series [26] the target is GABA-A receptor; anion channel (Rattus norvegicus) (UniProt O09028+P15431+P18506+P18508+P19969+P20236+P23574+P23576+P28471+P28473+P30191+P62813+P63079+P63138+Q91ZM7+Q9ES14). The series can be described thus: GABAA, Muscimol, Central Eurofins Panlabs panel. The series is classed as protein-complex assay. The note with it: Compound concentration 10.0 uM.
The target in series [27] is 3',5'-cyclic-AMP phosphodiesterase 7B (Homo sapiens, UniProt Q9NP56). The series is described as follows: 3H-cAMP and 3H-cGMP Scintillation Proximity Assay (PDE7B).
Chain of 3',5'-cyclic-AMP phosphodiesterase 7B (Q9NP56 whole entry): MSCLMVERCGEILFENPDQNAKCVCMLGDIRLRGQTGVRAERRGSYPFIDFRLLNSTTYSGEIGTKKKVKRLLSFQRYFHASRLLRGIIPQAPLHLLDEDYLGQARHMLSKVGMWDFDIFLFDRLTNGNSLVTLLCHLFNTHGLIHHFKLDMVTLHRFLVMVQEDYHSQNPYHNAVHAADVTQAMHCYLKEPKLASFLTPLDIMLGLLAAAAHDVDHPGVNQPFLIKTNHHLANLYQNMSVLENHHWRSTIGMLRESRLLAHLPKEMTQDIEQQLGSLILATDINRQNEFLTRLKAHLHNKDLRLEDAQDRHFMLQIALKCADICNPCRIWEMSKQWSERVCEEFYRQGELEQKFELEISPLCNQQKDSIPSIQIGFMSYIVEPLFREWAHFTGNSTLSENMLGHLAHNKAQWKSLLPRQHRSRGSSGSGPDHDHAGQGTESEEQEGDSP
The target in series [28] is T5, cAMP and cAMP-inhibited cGMP 3',5'-cyclic phosphodiesterase 10A. The series can be described thus: Panlabs assay PDE10A2. On the set-up: compound concentration 10 uM. The following applies: at 10 µM.
Series [29] concerns the target T2, 3',5'-cyclic-AMP phosphodiesterase 4B. The series can be described thus: Panlabs assay PDE4B1. On the set-up: compound concentration 10 uM. The following applies: at 10 µM.
The target of series [30] is T1, Dual 3',5'-cyclic-AMP and -GMP phosphodiesterase 11A. The series is described as follows: Panlabs assay PDE11A4. On the set-up: compound concentration 10 uM. The following applies: at 10 µM.
For series [31], the target named is High affinity cAMP-specific and IBMX-insensitive 3',5'-cyclic phosphodiesterase 8A (Homo sapiens, UniProt O60658). The series can be described thus: Panlabs assay PDE8A1. Set-up: compound concentration 10 uM. The note with it: at 10 µM.
For series [32], the target named is Phosphodiesterase 6 (Bos taurus) (UniProt P23439+P16586+P11541+P22571+P04972+Q95142). The series can be described thus: Panlabs assay PDE6. The series is classed as tissue-based. Set-up: compound concentration 10 uM. The following applies: retina, at 10 µM.
Series [33] has as its target cGMP-inhibited 3',5'-cyclic phosphodiesterase 3B (Homo sapiens, UniProt Q13370). The series can be described thus: Panlabs assay PDE3B. Set-up: compound concentration 10 uM. The note with it: at 10 µM.

A value given as a limit tells only on which side of the number the result lay.

Chain of Endothelin-1 receptor (Homo sapiens) (P25101 whole entry): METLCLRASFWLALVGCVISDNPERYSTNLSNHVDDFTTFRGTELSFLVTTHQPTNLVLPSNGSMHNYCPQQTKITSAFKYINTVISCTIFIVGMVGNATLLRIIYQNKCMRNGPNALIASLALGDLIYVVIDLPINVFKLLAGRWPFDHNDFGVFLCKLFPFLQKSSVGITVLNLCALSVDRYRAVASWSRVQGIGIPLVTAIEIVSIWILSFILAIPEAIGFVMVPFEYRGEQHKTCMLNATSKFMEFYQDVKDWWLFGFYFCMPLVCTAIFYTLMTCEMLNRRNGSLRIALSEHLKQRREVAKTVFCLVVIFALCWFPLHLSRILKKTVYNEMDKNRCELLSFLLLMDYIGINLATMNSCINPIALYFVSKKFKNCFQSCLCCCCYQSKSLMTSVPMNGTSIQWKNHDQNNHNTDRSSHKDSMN
Chain of D(3) dopamine receptor (Homo sapiens) (P35462 whole entry): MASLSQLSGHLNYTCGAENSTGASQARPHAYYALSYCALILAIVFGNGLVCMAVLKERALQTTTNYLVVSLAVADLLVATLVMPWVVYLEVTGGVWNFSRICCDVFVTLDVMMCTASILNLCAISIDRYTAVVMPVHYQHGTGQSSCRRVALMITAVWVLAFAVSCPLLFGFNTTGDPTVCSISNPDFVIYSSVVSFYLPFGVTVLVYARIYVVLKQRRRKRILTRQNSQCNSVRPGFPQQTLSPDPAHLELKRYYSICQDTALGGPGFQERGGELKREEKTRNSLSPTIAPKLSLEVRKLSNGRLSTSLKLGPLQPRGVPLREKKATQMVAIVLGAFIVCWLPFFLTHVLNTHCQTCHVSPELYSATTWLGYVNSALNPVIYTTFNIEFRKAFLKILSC
Chain of cGMP-inhibited 3',5'-cyclic phosphodiesterase 3B (Q13370 whole entry, looked up): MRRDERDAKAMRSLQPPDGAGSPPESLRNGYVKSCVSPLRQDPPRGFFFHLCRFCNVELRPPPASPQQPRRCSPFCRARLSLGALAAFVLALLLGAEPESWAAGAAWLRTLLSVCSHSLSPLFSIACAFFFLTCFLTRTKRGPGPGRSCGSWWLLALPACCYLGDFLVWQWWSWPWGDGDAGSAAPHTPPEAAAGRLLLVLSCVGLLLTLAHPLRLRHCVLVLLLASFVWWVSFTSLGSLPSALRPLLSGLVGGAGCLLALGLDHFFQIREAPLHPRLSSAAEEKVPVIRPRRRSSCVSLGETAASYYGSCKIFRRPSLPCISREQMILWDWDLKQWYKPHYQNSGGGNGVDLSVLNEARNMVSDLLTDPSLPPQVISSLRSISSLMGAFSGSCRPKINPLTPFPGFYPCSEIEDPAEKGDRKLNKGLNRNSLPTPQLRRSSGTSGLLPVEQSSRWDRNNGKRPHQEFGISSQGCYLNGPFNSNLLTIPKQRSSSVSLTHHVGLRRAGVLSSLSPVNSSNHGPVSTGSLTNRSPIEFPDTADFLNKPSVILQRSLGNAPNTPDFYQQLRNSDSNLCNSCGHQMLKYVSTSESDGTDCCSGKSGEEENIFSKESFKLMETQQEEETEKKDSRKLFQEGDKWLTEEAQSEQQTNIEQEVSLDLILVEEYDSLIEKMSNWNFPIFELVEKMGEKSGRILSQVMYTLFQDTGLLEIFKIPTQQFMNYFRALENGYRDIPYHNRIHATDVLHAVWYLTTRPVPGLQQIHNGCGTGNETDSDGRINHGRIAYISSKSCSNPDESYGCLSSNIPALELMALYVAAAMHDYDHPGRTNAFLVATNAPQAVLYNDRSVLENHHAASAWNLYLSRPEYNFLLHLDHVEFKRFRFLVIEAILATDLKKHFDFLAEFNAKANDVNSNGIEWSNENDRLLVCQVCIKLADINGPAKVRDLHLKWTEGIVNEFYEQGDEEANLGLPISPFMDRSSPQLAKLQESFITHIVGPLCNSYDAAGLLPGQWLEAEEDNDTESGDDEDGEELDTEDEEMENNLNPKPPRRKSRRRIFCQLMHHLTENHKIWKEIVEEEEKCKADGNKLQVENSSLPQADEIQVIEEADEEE

With `CCC[C@H]1CNCc2c1[nH]c(=O)c(C#N)c2N1CCC2(CC1)CC2`, the inhibition in series [1] was 12.5%; in [2], -7%; in series [3], 4%; in series [5], 2%; in series [7], 9%; in [8] it was 18.4%. Besides, the inhibition is 4% in series [9]; 22% in series [10]; 6.67% in [11]; -9% in [12]; 0% in series [13]; 22% in series [14]. For the same molecule, the inhibition in series [16] is -7.5%; in series [17], 28%; in [18], 1%; in series [19], 2%; in series [21], 3%; in series [23], 19%. For the same molecule, the inhibition in series [25] amounted to 0%; in series [26], 25%. In addition, the half-inhibitory concentration (IC50) is 6.6 µM (not active) in [4]; 3.96 µM (not active) in series [6]; > 10 µM (not active) in series [15]; 1.56 µM in [22]; > 10 µM (not active) in series [24]; > 10 µM (not active) in series [27]. In addition, the inhibition at 10 µM in series [20] was 2%.

With `CCC[C@@H]1CNCc2c1[nH]c(=O)c(C#N)c2N1CCC2(CC1)CC2`, the inhibition is 1.6% in [28]; 10.6% in [29]; 1.3% in series [30]; 2.9% in [31]; 16.7% in series [32]; 0.8% in series [33].

What is called inhibition is the drop in the measured response relative to a control, in per cent. What is called IC50 is the concentration at which inhibition is half-maximal. High values mean weaker potency, low ones greater potency.
